Patent US20230114459A1, “Composition for Use in the Prophylaxis and Treatment of Viral Infections of the Asfarviridae Family” (priority 2020, published 2023)

Columns and labels:
[1] = system: Vero cells infected with virus particles
[2] = system: African Swine Fever Virus (ASFV)

## CCCCCC(=O)O [100% C6, caproic acid]
[1]
  CPE (first test): 3/3
  CPE (second test): 3/3

## CCCCCCCC(=O)O [100% C8, caprylic acid]
[1]
  CPE (first test): 2/2
  CPE (second test): 2/2
  Visual scoring of protection against the cytopathic effect of the virus: scored best

## CCCCCCCCC(=O)O [100% C9, pelargonic acid]
[1]
  CPE (first test): 2/2
  CPE (second test): 2/2

## CCCCCCCCCC(=O)O [100% C10, capric acid]
[1]
  CPE (first test): 2/4
  CPE (second test): 2/4

## CCCCCCCCCCCC(=O)O [100% C12, lauric acid]
[1]
  Solubility in the test solution: solubility issue was observed

## CCCCCCCC(=O)O [Composition F1, caprylic acid]
[2]
  Cq value for ASFV compared to positive control: significantly increase the Cq value
